Data: US20050150764A1 (priority 2001, published 2005)

What was measured:
[1] = test system: Heliothis virescens caterpillars; test: Heliothis virescens test (Example A); type: in vivo; conditions: 500 ppm, after 6 days, soya shoots dipped
Procedure: Heliothis virescens Test [table] To produce a suitable preparation of active compound, 1 part by weight of active compound is mixed with the stated amounts of solvent and emulsifier, and the concentrate is diluted with emulsifier-containing water to the desired concentration. Soya shoots (Glycine max) are treated by being dipped into the preparation of active compound at the desired concentration and are populated with Heliothis virescens caterpillars while the leaves are still moist. After the desired period of time, the kill in % is determined. 100% means that all of the caterpillars have been killed: 0% denotes that no caterpillars have been killed.

[2] = test system: caterpillars of the cabbage moth (Plutella xylostella); test: Plutella test (Example C); type: in vivo; conditions: 500 ppm, after 6 days, cabbage leaves dipped
Procedure: (§1) Plutella test [table] To produce a suitable preparation of active compound, 1 part by weight of active compound is mixed with the stated amounts of solvent and emulsifier, and the concentrate is diluted with emulsifier-containing water to the desired concentration. Cabbage leaves (Brassica oleracea) are treated by being dipped into the preparation of active compound at the desired concentration and are populated with caterpillars of the cabbage moth (Plutella xylostella) while the leaves are still moist. After the desired period of time, the kill in % is determined. 100% means that all of the caterpillars have been killed: 0% denotes that no caterpillars have been killed.

[3] = test system: caterpillars of the army worm (Spodoptera exigua); test: Spodoptera exigua test (Example D); type: in vivo; conditions: 500 ppm, after 6 days, cabbage leaves dipped
Procedure: as §1, with “Spodoptera exigua Test” for “Plutella test”, “army worm (Spodoptera exigua)” for “cabbage moth (Plutella xylostella)”

[4] = test system: caterpillars of the army worm (Spodoptera frugiperda); test: Activity duration test: Spodoptera frugiperda (Example G); type: in vivo; conditions: 20 ppm, cotton plants sprayed
Procedure: (§2) Activity Duration Test: Spodoptera frugiperda [table] To produce a suitable preparation of active compound, 1 part by weight of active compound is mixed with the stated amounts of solvent and emulsifier, and the concentrate is diluted with emulsifier-containing water to the desired concentration. Cotton plants (Gossypium hirsutum) are sprayed with a preparation of the active compound in the desired concentration. After the number of days indicated, caterpillars of the army worm (Spodoptera frugiperda) are placed onto the treated leaves in infection chambers. After the desired period of time, the kill in % is determined. 100% means that all of the caterpillars have been killed: 0% denotes that no caterpillars have been killed.

[5] = not given; remark: listed apart in the source
[6] = test system: Heliothis virescens caterpillars; test: Activity duration test: Heliothis virescens (Example F); type: in vivo; conditions: 20 ppm, cotton plants sprayed
Procedure: as §2, with “Heliothis virescens” for “Spodoptera frugiperda”, “indicated, Heliothis virescens” for “indicated,”, “caterpillars” for “caterpillars of the army worm (Spodoptera frugiperda)”

SMILES	kill [1]	kill [2]	kill [3]	Degree of kill in % ([4]; infection after 5 days)	Degree of kill in % ([4]; infection after 12 days)	Degree of kill in % ([4]; infection after 19 days)	Degree of kill in % ([4]; infection after 26 days)	logP (pH 2)/ m.p. [° C.] (logP part)	melting point [5]	logP (logP (pH 2))	kill ([6]; infection after 5 days)	kill ([6]; infection after 12 days)	kill ([6]; infection after 19 days)	kill ([6]; infection after 26 days)
O=C(Nc1ccc(SC(F)(F)F)cc1)N1CCC(n2cc(Cl)cn2)C(c2cccc(F)c2)=N1 (centres unmarked) [Example 15]	100%	100%	100%	90%	90%	80%	90%	4.81/166						
O=C(Nc1ccc(C(F)(F)F)cc1)N1CCC(n2cc(Cl)cn2)C(c2cccc(Br)c2)=N1 (centres unmarked) [Example 13]	100%	100%	100%					4.77/196						
N#Cc1cccc(C2=NN(C(=O)Nc3ccc(OC(F)(F)F)cc3)CCC2n2cc(Cl)cn2)c1 (centres unmarked) [Example 1, 3-(3-cyanophenyl)-4-(4-chloropyrazol-1-yl)-1-(4-trifluoromethoxyphenylamino)carbonyl-1,4,5,6-tetrahydropyridazine]	100%	100%	100%						216 °C	4.08				
O=C(Nc1ccc(C(F)(F)F)cc1)N1CCC(n2cc(Cl)cn2)C(c2cccc(C(F)(F)F)c2)=N1 (centres unmarked) [Example 14]	100%	100%	100%	90%	80%	70%	90%	4.79/176			100%	100%	100%	100%
N#Cc1cccc(C2=NN(C(=O)Nc3ccc(SC(F)(F)F)cc3)CCC2n2cc(Cl)cn2)c1 (centres unmarked) [Example 17]	100%	100%	100%					4.44/182						
N#Cc1cccc(C2=NNCCC2n2cc(Cl)cn2)c1 (centres unmarked) [II-1, 3-(3-cyanophenyl)-4-(4-chloropyrazol-1-yl)-1,4,5,6-tetrahydropyridazine]									171 °C	2.29				
